The record followed here is US20180214428A1, “3-(1H-INDOL-2-YL)-1H-PYRAZOLO[3,4-B]PYRIDINES AND THERAPEUTIC USES THEREOF” (Samumed, LLC, priority 2015, published 2018).

One test relates to IL-6. The test is described as follows: IL-6 inhibition in LPS-stimulated THP-1 monocytes (HTRF). It counts as cell-based, human. The note with it: Homo sapiens; THP-1 cells, 500 ng/mL LPS, 22 h, HTRF IL-6 readout; 10-point dose-response from 10 μM. Put shortly: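 THP-1 cells serum-reduced (1% FBS, 24 h), then 5000 cells/well preincubated 2 h with compound (10-point 1:3 series from 10 μM, 0.1% DMSO) before 500 ng/mL LPS for 22 h at 37 °C. Secreted IL-6 quantified by HTRF 665/620 ratio; DMSO-normalised duplicates fitted to four-parameter EC50; above 10 μM, % inhibition at 10 μM given.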
(In TR-FRET formats the signal depends on donor and acceptor labels being close together.)

Test [1] relates to primary human mesenchymal stem cells (hMSCs). Description: Induction of chondrogenesis in primary human mesenchymal stem cells. It is filed as cell-based. The note with it: Homo sapiens, Mesenchymal stem cells, 144 h, 6 days; for Emax: chondrogenic nodules, TGF-β3 (10 ng/mL) positive control, read-out: Max. Activity as % TGF-β3 activity. As to the method: Representative compounds were screened using primary human mesenchymal stem cells (hMSCs) to determine their ability to induce chondrogenesis (process by which cartilage is developed).
Primary human mesenchymal stem cells (hMSCs) were purchased from Lonza (Walkersville, Md.) and expanded in Mesenchymal Stem Cell Growth Media (Lonza). Cells between passage 3 and 6 were used for the experiments.
Each compound was dissolved in DMSO as a 10 mM stock and used to prepare compound source plates. Serial dilution (1:3, 6-point dose-response curves from 2700 nM to 10 nM) and compound transfer was performed using the ECHO 550 (Labcyte, Sunnyvale, Calif.) into 96-well clear bottom assay plates (Greiner Bio-One) with appropriate DMSO backfill for a final DMSO concentration of 0.03%. hMSCs were plated at 20,000 cells/well in 250 μL/well Incomplete Chondrogenic Induction Medium (Lonza; DMEM, dexamethasone, ascorbate, insulin-transferrin-selenium [ITS supplement], gentamycin-amphotericin [GA-1000], sodium pyruvate, proline and L-glutamine). TGF-β3 (10 ng/mL) was used as a positive control for differentiation while negative control wells were treated with 75 nL DMSO for normalization and calculating EC50 values. Cells were incubated at 37° C. and 5% CO2 for 6 days. To image chondrogenic nodules, the cells were fixed using 4% formaldehyde (Electron Microscopy Sciences), and stained with 2 μg/mL Rhodamine B (Sigma-Aldrich) and 20 μM Nile Red (Sigma-Aldrich) [Johnson K., et. al, A Stem Cell-Based Approach to Cartilage Repair, Science, (2012). 336(6082), 717-721]. The nodules imaged (4 images per well at 4× magnification) by excitation at 531 nm and emission at 625 nm and quantified using the CellInsight CX5 (Thermo Scientific). Number of nodules in each well was normalized to the average of 3 DMSO treated wells on the same plate using Excel (Microsoft Inc.). The normalized averages (fold change over DMSO) of 3 replicate wells for each compound concentration were calculated. Due to solubility limitations of some of the compounds, curve fitting was incomplete leading to inaccurate EC50 determinations.
Using TGF-β3 as a positive control, the concentration of representative compounds required to induce 50% levels of chondrogenesis is reported. In addition, the maximum activity of each compound and the respective dose that each compound reached maximum chondrogenesis activity is reported.

`O=C(CC1CCNCC1)Nc1cncc(-c2cnc3[nH]nc(-c4cc5c(-c6ccccn6)cccc5[nH]4)c3c2)c1` [Compound 595, 2-(Piperidin-4-yl)-N-(5-(3-(4-(pyridin-2-yl)-1H-indol-2-yl)-1H-pyrazolo[3,4-b]pyridin-5-yl)pyridin-3-yl)acetamide] gave an EC50 in the test with IL-6 of 0.247 µM. In addition, the Emax in test [1] was 79%.
For `Cc1ncc(-c2cnc3[nH]nc(-c4cc5ccccc5[nH]4)c3c2)n1C` [Compound 655, 5-(1,2-Dimethyl-1H-imidazol-5-yl)-3-(1H-indol-2-yl)-1H-pyrazolo[3,4-b]pyridine] the same measures were 4.35 µM and 47%.
In the case of `CN(C)CCNc1cc(F)cc(-c2cccc3[nH]c(-c4n[nH]c5ncc(-c6cncc(OC7CCCCC7)c6)cc45)cc23)c1` [Compound 785, N^1-(3-(2-(5-(5-(Cyclohexyloxy)pyridin-3-yl)-1H-pyrazolo[3,4-b]pyridin-3-yl)-1H-indol-4-yl)-5-fluorophenyl)-N^2,N^2-dimethylethane-1,2-diamine], the EC50 was 1.8 µM in the test with IL-6 and 30 nM in test [1] (concentration required to induce 50% levels of chondrogenesis vs TGF-β3, read-out: Conc (nM) of 50% TGF-β3 activity). In addition, the Emax in test [1] stood at 147%.
